From US20110082130A1 (LIGAND PHARMACEUTICALS, INC., priority 2006, published 2011)

molecular target: T1, chimeric human H3 receptor (Homo sapiens, UniProt Q9Y5N1); test: Chimeric human H3 receptor GTP binding assay (agonist-stimulated GTP-gamma35S binding, Example 7); assay type: biochemical; conditions: Table I; P2 membranes of Sf9 cells, 1 μM histamine as agonist, Ki from IC50 by Cheng-Prusoff
T1 construct: made in house; host or cells: Sf9 insect cells (baculovirus); P2 membrane preparation
Description: This Example illustrates a representative assay for evaluating agonist-stimulated GTP-gamma^35S binding (“GTP binding”) activity. […] This agonist-stimulated GTP binding activity can also be used to detect partial agonism mediated by antagonist compounds. A compound analyzed in this assay is referred to herein as a “test compound.”
Four independent baculoviral stocks (one directing the expression of the chimeric human H3 receptor and three directing the expression of each of the three subunits of a heterotrimeric G-protein) are used to infect a culture of Sf9 cells as described above. P2 membranes are prepared as described above, and agonist-stimulated GTP binding on the P2 membranes is assessed using histamine (Sigma Chemical Co., St. Louis, Mo.) as agonist in order to ascertain that the receptor/G-protein-alpha-beta-gamma combination(s) yield a functional response as measured by GTP binding. P2 membranes are resuspended by Dounce homogenization (tight pestle) in GTP binding assay buffer (50 mM Tris pH 7.4, 120 mM NaCl, 5 mM MgCl2, 2 mM EGTA, 1 mg/ml BSA, 0.2 mg/ml bacitracin, 0.02 mg/ml aprotinin, 0.01 mg/ml saponin, 10 μM GDP) and added to assay tubes at a concentration of 35 μg protein/reaction tube. After adding increasing doses of histamine at concentrations ranging from 10^−12 M to 10^−5 M, reactions are initiated by the addition of […] GTP-gamma^35S (PERKIN ELMER; Boston, Mass.) with a final assay volume of 0.20 ml. In competition experiments, non-radiolabeled test compounds are added to separate reactions at concentrations ranging from 10^−10 M to 10^−6 M along with 1 μM histamine to yield a final volume of 0.20 ml.
Neutral antagonists are antagonists that are substantially free of inherent agonist activity, and include those test compounds that reduce the histamine-stimulated GTP binding activity towards, but not below, baseline levels. In contrast, in the absence of added histamine, inverse agonists reduce the GTP binding activity of the receptor-containing membranes below baseline.
After a 60-min incubation at room temperature, reactions are terminated by vacuum filtration over WHATMAN GF/C filters (pre-soaked in wash buffer, 0.1% BSA) followed by washing with ice-cold wash buffer (50 mM Tris pH 7.4, 120 mM NaCl). The amount of receptor-bound (and thereby membrane-bound) GTP-gamma^35S is determined by measuring the filter-bound radioactivity, preferably by liquid scintillation spectrometry of the washed filters. Non-specific binding is determined in parallel assays including 10 μM unlabeled GTP-gammaS and typically represents less than 5 percent of total binding. Data is expressed as percent above basal (baseline). The results of GTP binding experiments are analyzed using SIGMAPLOT software (SPSS Inc., Chicago, Ill.). IC50 values are calculated by non-linear regression analysis of dose-response curves using Kaleidograph (Synergy Software, Reading, Pa.).
Alternatively the data is analyzed as follows. First, the average bound radioactivity from negative control wells (no agonist) is subtracted from the bound radioactivity detected for each of the other experimental wells. Second, average bound radioactivity is calculated for the positive control wells (agonist wells). Then, percent inhibition for each compound tested is calculated using the equation:
Calculated IC50 values are converted to K1 values by the Cheng-Prusoff correction (Cheng and Prusoff (1973) Biochem. Pharmacol. 22(23):3099-3108). Accordingly, the following equation: Ki=IC50/(1+[L]/EC50) is used, where [L] is the histamine concentration in the GTP binding assay, and EC50 is the concentration of histamine producing a 50% response, as determined by a dose-response analysis using concentrations of histamine ranging from 10^−10 M to 10^−6M. […]

T1 sequence (Q9Y5N1 with tags, fused parts or gaps): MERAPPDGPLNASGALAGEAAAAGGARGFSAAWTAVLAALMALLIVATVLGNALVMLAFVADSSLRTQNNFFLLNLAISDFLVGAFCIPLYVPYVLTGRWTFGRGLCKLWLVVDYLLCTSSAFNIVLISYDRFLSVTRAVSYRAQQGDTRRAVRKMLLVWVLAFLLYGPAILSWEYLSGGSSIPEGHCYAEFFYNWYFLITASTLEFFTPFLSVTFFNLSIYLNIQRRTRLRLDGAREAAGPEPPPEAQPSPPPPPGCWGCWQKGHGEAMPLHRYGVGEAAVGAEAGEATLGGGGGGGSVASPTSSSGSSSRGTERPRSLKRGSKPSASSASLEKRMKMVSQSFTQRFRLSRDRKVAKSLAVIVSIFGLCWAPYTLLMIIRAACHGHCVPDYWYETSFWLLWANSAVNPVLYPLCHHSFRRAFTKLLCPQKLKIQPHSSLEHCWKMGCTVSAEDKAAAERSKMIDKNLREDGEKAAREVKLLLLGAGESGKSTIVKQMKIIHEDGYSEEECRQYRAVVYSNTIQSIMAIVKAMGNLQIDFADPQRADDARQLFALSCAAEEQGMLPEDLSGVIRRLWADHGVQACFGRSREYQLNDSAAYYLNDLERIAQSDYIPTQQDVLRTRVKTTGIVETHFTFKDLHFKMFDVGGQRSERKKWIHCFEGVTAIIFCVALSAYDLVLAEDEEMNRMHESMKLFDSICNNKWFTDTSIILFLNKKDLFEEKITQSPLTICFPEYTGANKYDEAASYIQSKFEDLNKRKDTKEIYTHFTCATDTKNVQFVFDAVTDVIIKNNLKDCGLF

Ki, < 1000 nM:
COc1ccc2c(c1)CCN(CC(=O)N1CCN(C3CCC3)CC1)CC2 [Compound 77, 3-[2-(4-cyclobutylpiperazin-1-yl)-2-oxoethyl]-7-methoxy-2,3,4,5-tetrahydro-1H-3-benzazepine]
CC(=O)c1ccc(-c2ccc3c(c2)CCN(CC(=O)N2CCN(C4CCC4)CC2)C3)cc1 [Compound 67, 1-(4-{2-[2-(4-cyclobutylpiperazin-1-yl)-2-oxoethyl]-1,2,3,4-tetrahydroisoquinolin-6-yl}phenyl)ethanone]
CC(=O)c1ccc(-c2ncc3c(n2)CCN(CC(=O)N2CCN(C4CCC4)CC2)C3)cc1 [Compound 71, 1-(4-{6-[2-(4-cyclobutylpiperazin-1-yl)-2-oxoethyl]-5,6,7,8-tetrahydropyrido[4,3-d]pyrimidin-2-yl}phenyl)ethanone]
CC(C)CC1c2ccccc2CCN1CC(=O)N1CCN(C(C)C)CC1 (stereo not shown) [Compound 57, 1-isobutyl-2-[2-(4-isopropylpiperazin-1-yl)-2-oxoethyl]-1,2,3,4-tetrahydroisoquinoline]
COc1ncnc2c1CCN(CC(=O)N1CCN(C3CCC3)CC1)CC2 [Compound 78, 7-[2-(4-cyclobutylpiperazin-1-yl)-2-oxoethyl]-4-methoxy-6,7,8,9-tetrahydro-5H-tetrahydro-5H-pyrimido[4,5-d]azepine]

same assay, conditions: Table II "Ki", symbol *; assay of Example 7

Ki, < 1000 nM:
COc1ccc(-c2ccc3c(c2)CCN(CC(=O)N2CCN(C4CCC4)CC2)C3)cc1OC [Compound 524, 2-[2-(4-cyclobutylpiperazin-1-yl)-2-oxoethyl]-6-(3,4-dimethoxyphenyl)-1,2,3,4-tetrahydroisoquinoline]

same assay, conditions: Table II; "*" = Ki in assay of Example 7 less than 1 micromolar

Ki, < 1000 nM:
O=C(CN1CCc2cc(-n3ncccc3=O)ccc2C1)N1CCN(C2CCC2)CC1 [Compound 193, 2-{2-[2-(4-cyclobutylpiperazin-1-yl)-2-oxoethyl]-1,2,3,4-tetrahydroisoquinolin-6-yl}pyridazin-3(2H)-one]
O=C(CN1CCc2cc(-n3ccc(C(F)(F)F)n3)ccc2C1)N1CCN(C2CCC2)CC1 [Compound 157, 2-[2-(4-cyclobutylpiperazin-1-yl)-2-oxoethyl]-6-[3-(trifluoromethyl)-1H-pyrazol-1-yl]-1,2,3,4-tetrahydroisoquinoline]
CC(=O)c1ccc2c(n1)CCN(CC(=O)N1CCN(C3CCC3)CC1)C2 [Compound 173, 1-{6-[2-(4-cyclobutylpiperazin-1-yl)-2-oxoethyl]-5,6,7,8-tetrahydro-1,6-naphthyridin-2-yl}ethanone]
O=C(CN1CCc2nc(N3CCC(F)C3)ccc2C1)N1CCN(C2CCC2)CC1 (stereo not shown) [Compound 225, 6-[2-(4-cyclobutylpiperazin-1-yl)-2-oxoethyl]-2-(3-fluoropyrrolidin-1-yl)-5,6,7,8-tetrahydro-1,6-naphthyridine]
O=C(CN1CCc2n[nH]cc2C1)N1CCN(C2CCC2)CC1 [Compound 91, 5-[2-(4-cyclobutylpiperazin-1-yl)-2-oxoethyl]-4,5,6,7-tetrahydro-2H-pyrazolo[4,3-c]pyridine]
CS(=O)(=O)c1ccc(-c2nc3c(s2)CCN(CC(=O)N2CCN(C4CCC4)CC2)C3)cc1 [Compound 105, 5-[2-(4-cyclobutylpiperazin-1-yl)-2-oxoethyl]-2-[4-(methylsulfonyl)phenyl]-4,5,6,7-tetrahydro[1,3]thiazolo [4,5-c]pyridine]
Cn1cc(-c2ccc3c(c2)CCN(CC(=O)N2CCN(C4CCC4)CC2)C3)ccc1=O [Compound 192, 5-{2-[2-(4-cyclobutylpiperazin-1-yl)-2-oxoethyl]-1,2,3,4-tetrahydroisoquinolin-6-yl}-1-methylpyridin-2(1H)-one]
N#Cc1cnn(-c2ccc3c(c2)CCN(CC(=O)N2CCN(C4CCC4)CC2)C3)c1 [Compound 244, 1-{2-[2-(4-cyclobutylpiperazin-1-yl)-2-oxoethyl]-1,2,3,4-tetrahydroisoquinolin-6-yl}-1H-pyrazole-4-carbonitrile]
CC(=O)c1ccc(-c2nc3c(s2)CN(CC(=O)N2CCN(C4CCC4)CC2)CC3)cc1 [Compound 98, 1-(4-{5-[2-(4-cyclobutylpiperazin-1-yl)-2-oxoethyl]-4,5,6,7-tetrahydro[1,3]thiazolo [5,4-c]pyridin-2-yl}phenyl)ethanone]
O=C(CN1CCc2cc(-c3cccc(F)c3)nnc2C1)N1CCN(C2CCC2)CC1 [Compound 233, 7-[2-(4-cyclobutylpiperazin-1-yl)-2-oxoethyl]-3-(3-fluorophenyl)-5,6,7,8-tetrahydropyrido[3,4-c]pyridazine]

same assay, conditions: Table II; assay of Example 7

Ki, < 1000 nM:
N#Cc1cnc(-n2cc3c(n2)CCN(CC(=O)N2CCN(C4CCC4)CC2)C3)nc1 [Compound 686, 2-{5-[2-(4-cyclobutylpiperazin-1-yl)-2-oxoethyl]-4,5,6,7-tetrahydro-2H-pyrazolo[4,3-c]pyridin-2-yl}pyrimidine-5-carbonitrile]
N#Cc1ccc(-n2cc3c(n2)CCN(CC(=O)N2CCN(C4CCC4)CC2)C3)nc1 [Compound 687, 6-{5-[2-(4-cyclobutylpiperazin-1-yl)-2-oxoethyl]-4,5,6,7-tetrahydro-2H-pyrazolo[4,3-c]pyridin-2-yl}nicotinonitrile]

same assay, conditions: assay of Example 7; "*" in Ki of Table II

Ki, < 1000 nM:
CS(=O)(=O)c1cccc(-c2ccc3c(c2)CCN(CC(=O)N2CCN(C4CCCC4)CC2)C3)c1 [Compound 394, 2-[2-(4-cyclopentylpiperazin-1-yl)-2-oxoethyl]-6-[3-(methylsulfonyl)phenyl]-1,2,3,4-tetrahydroisoquinoline]
CC(C)N1CCN(C(=O)CN2CCc3cc(-c4cncnc4)ccc3C2)CC1 [Compound 387, 2-[2-(4-isopropylpiperazin-1-yl)-2-oxoethyl]-6-pyrimidin-5-yl-1,2,3,4-tetrahydroisoquinoline]
COc1ccc(-c2ccc3c(c2)CCN(CC(=O)N2CCN(C(C)C)CC2)C3)cn1 [Compound 386, 2-[2-(4-isopropylpiperazin-1-yl)-2-oxoethyl]-6-(6-methoxypyridin-3-yl)-1,2,3,4-tetrahydroisoquinoline]
O=C(CN1CCc2nc(-c3ccc4ccccc4c3)sc2C1)N1CCN(C2CCC2)CC1 [Compound 300, 5-[2-(4-cyclobutylpiperazin-1-yl)-2-oxoethyl]-2-(2-naphthyl)-4,5,6,7-tetrahydro[1,3]thiazolo [5,4-c]pyridine]
O=C(CN1CCc2nc(-c3ccc(Cl)c(Cl)c3)sc2C1)N1CCN(C2CCC2)CC1 [Compound 354, 5-[2-(4-cyclobutylpiperazin-1-yl)-2-oxoethyl]-2-(3,4-dichlorophenyl)-4,5,6,7-tetrahydro[1,3]thiazolo [5,4-c]pyridine]
COc1ccc(-c2ccc3c(c2)CCN(CC(=O)N2CCN(C4CCCC4)CC2)C3)cn1 [Compound 391, 2-[2-(4-cyclopentylpiperazin-1-yl)-2-oxoethyl]-6-(6-methoxypyridin-3-yl)-1,2,3,4-tetrahydroisoquinoline]
O=C(CN1CCc2nc(-c3cccc(F)c3F)sc2C1)N1CCN(C2CCC2)CC1 [Compound 356, 5-[2-(4-cyclobutylpiperazin-1-yl)-2-oxoethyl]-2-(2,3-difluorophenyl)-4,5,6,7-tetrahydro[1,3]thiazolo [5,4-c]pyridine]
